Results reported in US20260217670A1, “CRYSTAL FORM OF BAXDROSTAT, AND PREPARATION METHOD THEREFOR AND USE THEREOF” (CRYSTAL PHARMACEUTICAL (SUZHOU) CO., LTD., priority 2023, published 2026).

Legend:
Assay type in all cases: physicochemical
[1] = Storage stability of Form CSI, purity by HPLC and crystalline form by XRPD
Method: (§1) XRPD patterns in the present disclosure were acquired by a Bruker D8 DISCOVER X-ray powder diffractometer. The parameters of the X-ray powder diffraction method of the present disclosure are as follows: • X-Ray source: Cu, Kα • Kα1 (Å): 1.54060; Kα2 (Å): 1.54439 • Kα2/Kα1 intensity ratio: 0.50 • Voltage: 40 kV • Current: 40 mA • Scan range (20): from 4.0 degree to 40.0 degree
A certain amount of Form CSI prepared by the present disclosure was stored under conditions of 25° C./60% RH, 40° C./75% RH and 60° C./75% RH. The purity and crystalline form were checked by HPLC and XRPD. The results are listed in Table 3, and the XRPD overlay is substantially as depicted in FIG. 7 and FIG. 8. […] Under 60° C./75% RH, it remains stable for at least 1 month with its purity also essentially unchanged, indicating very good stability even under stress conditions.

[2] = Wet ball milling (grinding stability); conditions: for Solid form after grinding: wet ball milling, 1800 rpm for 10 min
Method: as §1
A certain amount of Form CSI solid was placed in a centrifuge tube, and about 10 μL of corresponding solvent was added inside, along with a 5 mm grinding ball. The centrifuge tube containing the sample was installed on the GT300 vibration ball mill and subjected to wet ball milling at 1800 rpm for 10 min.

[3] = DVS weight gain at various humidity (hygroscopicity / humidity stability)
Method: Purge gas: N2DVS data in the present disclosure were measured via an SMS (Surface Measurement Systems Ltd.) intrinsic DVS instrument. The instrument control software is DVS-Intrinsic control software. Typical parameters for DVS test are as follows: • Temperature: 25° C. • Gas and flow rate: N2, 200 mL/min • RH range: 0% RH to 95% RH
A certain amount of Form CSI was used to test the weight gain at various humidity by a DVS instrument. The weight gains at each relative humidity were recorded in a cycle of 60% RH-95% RH-0% RH-95% RH-0% RH. […] The XRPD overlay before and after DVS test is substantially as depicted in FIG. 11.

[4] = 25° C./60% RH, Open package, 6 months
[5] = 25° C./60% RH, Sealed package, 6 months
[6] = 40° C./75% RH, Open package, 6 months
[7] = 40° C./75% RH, Sealed package, 6 months
[8] = 60° C./75% RH, Open package, 1 month
[9] = 60° C./75% RH, Sealed package, 1 month
[10] = wet ball milling at 1800 rpm for 10 min, water or ethanol

Time Form CSI remains stable with purity essentially unchanged ([1]; 25° C./60% RH): at least 6 months
Purity [1, 4]: 99.27%
Solid form [1, 4]: Form CSI
Purity [1, 5]: 99.22%
Solid form [1, 5]: Form CSI
Time Form CSI remains stable with purity essentially unchanged ([1]; 40° C./75% RH): at least 6 months
Purity [1, 6]: 99.26%
Solid form [1, 6]: Form CSI
Purity [1, 7]: 99.21%
Solid form [1, 7]: Form CSI
Time Form CSI remains stable with purity essentially unchanged ([1]; 60° C./75% RH): at least 1 month
Purity [1, 8]: 99.26%
Solid form [1, 8]: Form CSI
Purity [1, 9]: 99.24%
Solid form [1, 9]: Form CSI
Purity ([1]; Initial): 99.23%
Solid form ([1]; Initial): Form CSI
Crystalline form before and after wet ball milling [2, 10]: remains unchanged
Crystallinity after wet ball milling [2, 10]: no significant decrease
Solid form after grinding ([2]; Ethanol): Form CSI
Solid form after grinding ([2]; Water): Form CSI
Form change before and after DVS test (XRPD) ([3]; cycle of 60% RH-95% RH-0% RH-95% RH-0% RH): No form change
Weight gain ([3]; from 60% RH to 80% RH, DVS, 25° C.): 0.34%
SMILES: CCC(=O)N[C@@H]1CCCc2c(-c3ccc4c(c3)CCC(=O)N4C)cncc21 [Form CSI, (+)-(R)—N-(4-(1-methyl-2-oxo-1,2,3,4-tetrahydroquinolin-6-yl)-5,6,7,8-tetrahydroisoquinolin-8-yl) propionamide]
